What was measured:
Assay in all cases: relative viability (nuclei count vs DMSO), 5 days (fraction); higher = more cells survive
[1] = compound: CC1=CC(=NN1)NC2=CC(=NC(=N2)/C=C/C3=CC=CC=C3)N4CCN(CC4)C + Cc1cc(Nc2cc(N3CCN(C)CC3)nc(Sc3ccc(NC(=O)C4CC4)cc3)n2)n[nH]1 [Tozasertib] (partner 0.1 µM)
Procedure, shortened: (§1)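 Relative viability was taken as the ratio of nuclei in treated wells to nuclei in vehicle wells. Lung cancer cell lines in 1536-well plates received compounds by pin tool one day after seeding, either one drug alone or a fixed anchor-drug dose plus five library-drug doses (not always all listed) in √10 steps. Nuclei were counted on 4× images after 5 days of treatment, and values are medians of duplicate plates.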

[2] = compound: CC1=CC(=NN1)NC2=CC(=NC(=N2)/C=C/C3=CC=CC=C3)N4CCN(CC4)C + CCNC(=O)c1noc(-c2cc(C(C)C)c(O)cc2O)c1-c1ccc(CN2CCOCC2)cc1 [Luminespib] (partner 0.01 µM)
Procedure, shortened: as §1

[3] = compound: CC1=CC(=NN1)NC2=CC(=NC(=N2)/C=C/C3=CC=CC=C3)N4CCN(CC4)C + NC(=O)Nc1cc(-c2cccc(F)c2)sc1C(=O)N[C@H]1CCCNC1 [AZD7762] (partner 0.2 µM)
Procedure, shortened: as §1

Bortezomib + Luminespib = compound: CC(C)C[C@H](NC(=O)[C@H](Cc1ccccc1)NC(=O)c1cnccn1)B(O)O [Bortezomib] + CCNC(=O)c1noc(-c2cc(C(C)C)c(O)cc2O)c1-c1ccc(CN2CCOCC2)cc1 [Luminespib] (partner 0.01 µM)
Procedure, shortened: as §1

Cell Line	relative viability ([1]; first compound 0.08 µM)	relative viability ([1]; first compound 0.253 µM)	relative viability ([1]; first compound 0.8 µM)	relative viability ([1]; first compound 2.53 µM)	relative viability ([1]; first compound 8 µM)	relative viability ([2]; first compound 0.08 µM)	relative viability ([2]; first compound 0.253 µM)	relative viability ([2]; first compound 0.8 µM)	relative viability ([2]; first compound 2.53 µM)	relative viability ([2]; first compound 8 µM)	relative viability ([3]; first compound 0.08 µM)	relative viability ([3]; first compound 0.253 µM)	relative viability ([3]; first compound 0.8 µM)	relative viability ([3]; first compound 2.53 µM)	relative viability ([3]; first compound 8 µM)	relative viability (Bortezomib + Luminespib; first compound 0.0002 µM)	relative viability (Bortezomib + Luminespib; first compound 0.000632 µM)	relative viability (Bortezomib + Luminespib; first compound 0.002 µM)	relative viability (Bortezomib + Luminespib; first compound 0.006325 µM)	relative viability (Bortezomib + Luminespib; first compound 0.02 µM)
NCI-H1651	0.678	0.658	0.661	0.296	0.177	0.754	0.854	0.912	0.643	0.244	0.437	0.483	0.463	0.335	0.0886	0.868	0.906	1.07	0.154	0.114
RERF-LC-KJ	0.545	0.437	0.306	0.197	0.2	1.33	1.2	0.944	0.269	0.264	0.854	1.05	0.915	0.651	0.232	1.16	1.21	0.986	0.291	0.273
NCI-H1755	0.539	0.563	0.524	0.333	0.211	0.496	0.416	0.748	0.346	0.157	0.448	0.471	0.396	0.296	0.184	0.494	0.418	0.417	0.21	0.181
NCI-H2170	0.72	0.656	0.699	0.38	0.164	0.705	0.692	0.688	0.444	0.14	0.875	0.971	0.556	0.243	0.114	0.46	0.534	0.744	0.516	0.202
NCI-H2126	0.844	0.907	0.837	0.501	0.236	0.934	1.01	0.882	0.812	0.224	0.982	1.06	1.02	0.825	0.873	0.864	0.904	0.821	0.543	0.213
EPLC-272H	0.34	0.203	0.273	0.113	0.122	0.456	0.458	0.149	0.11	0.0775	0.17	0.209	0.196	0.116	0.0909	0.36	0.143	0.217	0.148	0.115
NCI-H1975	0.62	0.729	0.416	0.127	0.0865	0.178	0.28	0.199	0.151	0.118	0.692	0.872	0.746	0.429	0.174	0.192	0.122	0.158	0.138	0.177

From the supplement of paper PMC10307832
